From patent US12263172B2, “Toll-like receptor agonists for use in the treatment of hepatitis b” (priority 2019, dated 2025)
Several values for one entry are separate records, joined by “and”; a condition that tells them apart may be missing. Identical values can stand only once. Entries after “also recorded” stand apart in the source; their conditions may differ.

Test: Phase 1 single-ascending dose (Part 1): safety and tolerability in healthy adults
Type: in vivo, human
Experimental: This ongoing trial is a Phase 1 randomized, double-blind, placebo-controlled study in male and female healthy adult volunteers aged 18-55 years. All volunteers provided written, informed consent.
All volunteers were followed up for 4 weeks and safety and tolerability were continuously assessed throughout the study. All adverse events (AEs) were recorded from the time of consent to the completion visit and were graded using the DAIDS toxicity grading scale. Volunteers also underwent physical examinations, electrocardiograms, vital sign checks and clinical laboratory parameters (chemistry, haematology, urinalysis).

CCCCOc1nc(N)c2[nH]cc(Cc3ccc(CN4CCCC4)cc3)c2n1 [Compound 4]
lab toxicity: Triglycerides (mmol/L), upwards, Grade 3 (single dose 1.8 mg fasted): 1 (16.7%) n (%) | lab toxicity: Urate (μmol/L), upwards, Grade 1 (single dose 1.8 mg fasted): 1 (16.7%) n (%) | subjects with at least one AE (single dose 1.8 mg fasted): 5 (83.3%) n (%) | subjects with at least one AE for which any study drug or study was permanently stopped (single dose 1.8 mg fasted): 0 n (%) | subjects with at least one AE for which any study drug or study was temporarily stopped (single dose 1.8 mg fasted): 0 n (%) | subjects with at least one AE possibly related to any study drug (single dose 1.8 mg fasted): 1 (16.7%) n (%) | subjects with at least one AE possibly, probably or very likely related to any study drug (single dose 1.8 mg fasted): 2 (33.3%) n (%) | subjects with at least one AE probably related to any study drug (single dose 1.8 mg fasted): 2 (33.3%) n (%) | subjects with at least one SAE (single dose 1.8 mg fasted): 0 n (%) | subjects with at least one fatal AE (single dose 1.8 mg fasted): 0 n (%) | subjects with at least one grade 1 AE (single dose 1.8 mg fasted): 3 (50.0%) n (%) | subjects with at least one grade 2 AE (single dose 1.8 mg fasted): 2 (33.3%) n (%) | subjects with at least one grade 3 or 4 AE (single dose 1.8 mg fasted): 0 n (%) | subjects with fever and flu-like symptoms (flu-like AEs and lymphopenia) (single dose 1.8 mg fasted): 2 and 2/6 | subjects with high VLDL cholesterol levels (non-graded) (single dose 1.8 mg fasted): 4 (66.7%) n (%) | subjects with high values for segmented neutrophils/leukocytes (non-graded) (single dose 1.8 mg fasted): 4 (66.7%) n (%) | treatment-related AE: Any AE (single dose 1.8 mg fasted): 2 (33.3%) n (%) | treatment-related AE: Chills (single dose 1.8 mg fasted): 2 (33.3%) n (%) | treatment-related AE: Dizziness (single dose 1.8 mg fasted): 2 (33.3%) n (%) | treatment-related AE: General disorders and administration site conditions (single dose 1.8 mg fasted): 2 (33.3%) n (%) | treatment-related AE: Headache (single dose 1.8 mg fasted): 1 (16.7%) n (%) | treatment-related AE: Hypertension (single dose 1.8 mg fasted): 2 (33.3%) n (%) | treatment-related AE: Myalgia (single dose 1.8 mg fasted): 1 (16.7%) n (%) | treatment-related AE: Nervous system disorders (single dose 1.8 mg fasted): 2 (33.3%) n (%) | treatment-related AE: Oropharyngeal pain (single dose 1.8 mg fasted): 1 (16.7%) n (%) | treatment-related AE: Pyrexia (single dose 1.8 mg fasted): 2 (33.3%) n (%) | treatment-related AE: Respiratory, thoracic and mediastinal disorders (single dose 1.8 mg fasted): 1 (16.7%) n (%) | treatment-related AE: Vascular disorder (single dose 1.8 mg fasted): 2 (33.3%) n (%) | vital signs: Respiratory rate (brpm) Grade 1 (single dose 1.8 mg fasted): 2 (33.3%) n (%) | vital signs: Respiratory rate (brpm) Grade 2 (single dose 1.8 mg fasted): 1 (16.7%) n (%) | vital signs: SaO2 (%) 90% to <95% (single dose 1.8 mg fasted): 0 n (%) | vital signs: SaO2 (%) 95% to <98% (single dose 1.8 mg fasted): 2 (33.3%) n (%) | vital signs: Standing DBP (mmHg) Grade 1 (single dose 1.8 mg fasted): 3 (50.0%) n (%) | vital signs: Standing DBP (mmHg) Grade 2 (single dose 1.8 mg fasted): 1 (16.7%) n (%) | vital signs: Standing DBP (mmHg) Grade 3 (single dose 1.8 mg fasted): 1 (16.7%) n (%) | vital signs: Standing DBP (mmHg) Low (single dose 1.8 mg fasted): 0 n (%) | vital signs: Standing SBP (mmHg) Grade 1 (single dose 1.8 mg fasted): 1 (16.7%) n (%) | vital signs: Standing SBP (mmHg) Low (single dose 1.8 mg fasted): 0 n (%) | vital signs: Standing pulse (bpm) High (single dose 1.8 mg fasted): 0 n (%) | vital signs: Standing pulse (bpm) Low (single dose 1.8 mg fasted): 0 n (%) | vital signs: Supine DBP (mmHg) Grade 1 (single dose 1.8 mg fasted): 1 (16.7%) n (%) | vital signs: Supine DBP (mmHg) Low (single dose 1.8 mg fasted): 0 n (%) | vital signs: Supine SBP (mmHg) Grade 1 (single dose 1.8 mg fasted): 1 (16.7%) n (%) | vital signs: Supine SBP (mmHg) Grade 2 (single dose 1.8 mg fasted): 1 (16.7%) n (%) | vital signs: Supine SBP (mmHg) Low (single dose 1.8 mg fasted): 0 n (%) | vital signs: Supine pulse (bpm) Low (single dose 1.8 mg fasted): 1 (16.7%) n (%) | ↑ AST Grade 3 (laboratory abnormality) (single dose 1.8 mg fasted): 0 n (%) | ↑ Amylase Grade 2 (laboratory abnormality) (single dose 1.8 mg fasted): 0 n (%) | ↑ Cholesterol Grade 2 (laboratory abnormality) (single dose 1.8 mg fasted): 1/5 | ↑ Creatine kinase Grade 2 (laboratory abnormality) (single dose 1.8 mg fasted): 1 n (%) | ↑ Creatine kinase Grade 4 (laboratory abnormality) (single dose 1.8 mg fasted): 0 n (%) | ↑ Glucose Grade 2 (laboratory abnormality) (single dose 1.8 mg fasted): 0 n (%) | ↑ LDL cholesterol Grade 2 (laboratory abnormality) (single dose 1.8 mg fasted): 0 n (%) | ↑ LDL cholesterol Grade 3 (laboratory abnormality) (single dose 1.8 mg fasted): 0 n (%) | ↑ Lipase Grade 2 (laboratory abnormality) (single dose 1.8 mg fasted): 1/5 | ↑ Pancreatic amylase Grade 2 (laboratory abnormality) (single dose 1.8 mg fasted): 1/2 | ↑ Potassium Grade 2 (laboratory abnormality) (single dose 1.8 mg fasted): 1/5 | ↑ Sodium Grade 2 (laboratory abnormality) (single dose 1.8 mg fasted): 1 n (%) | ↑ Triglycerides Grade 2 (laboratory abnormality) (single dose 1.8 mg fasted): 0 n (%) | ↑ Triglycerides Grade 3 (laboratory abnormality) (single dose 1.8 mg fasted): 1 n (%) | ↓ Bicarbonate Grade 2 (laboratory abnormality) (single dose 1.8 mg fasted): 1 n (%) | ↓ GFR Grade 2 (laboratory abnormality) (single dose 1.8 mg fasted): 0 n (%) | ↓ Lymphocytes Grade 2 (laboratory abnormality) (single dose 1.8 mg fasted): 0 n (%) | ↓ Lymphocytes Grade 4 (laboratory abnormality) (single dose 1.8 mg fasted): 2 n (%) | ↓ Neutrophils Grade 2 (laboratory abnormality) (single dose 1.8 mg fasted): 1 n (%) | ↓ Phosphate Grade 2 (laboratory abnormality) (single dose 1.8 mg fasted): 0 n (%) | lab toxicity: GFR from creatinine adjusted for BSA (mL/s/1.73m^2), downwards, Grade 2 (single dose 1.8 mg fasted, n = 1 with data): 0 n (%) | safety and tolerability (single oral doses of 0.2-1.8 mg): well tolerated with no major safety concerns; also recorded: generally considered safe and well tolerated
